Test results as given in PMC11984392, “EphA2-targeted alpha-particle theranostics for enhancing PDAC treatment” (Theranostics, 2025).
Read-outs that look alike come from different tables or passages of the source. *1 amine or outer side, *2 acyl side, *3 side chain or, on linkers, in order; H or OH if unused. Where a SMILES comes first, the peptide text is derived from it. Bridges are numbered along the chain shown (N, C = ends). [ ]: non-standard residue; d: D form. The star is where a group is joined. TATA = O=C(CC[*:1])N1CN(C(=O)CC[*:2])CN(C(=O)CC[*:3])C1; NOTA = O=C(O)CN1CCN(CC(=O)O)CCN(CC(=O)*)CC1; Hyp = O=C(O)[C@@H]1C[C@@H](O)CN1; hArg = N=C(N)NCCCC[C@H](N)C(=O)O; PEG2 = NCCOCCOCCC(=O)O; Sar = CNCC(=O)O

How the values were obtained:
[1] = Ex vivo biodistribution; design: species or system NSG mice; settings: both sexes, NSG, mouse, in vivo, total radioactivity, mean ± SEM (n = 4 or 5); for tissue uptake at 2 h / tissue to tissue ratio at 2 h: 120 min p.i.; for tissue to tissue ratio at 2 h: dimensionless; for tissue uptake at 5 min: 5 min p.i.; for tissue uptake at 0.5 h: 30 min p.i.; for tissue uptake at 1.5 h: 90 min p.i.
Protocol: (§1) Animal studies were performed under Johns Hopkins University Animal Care and Use Committee (ACUC)-approved protocol (Principal investigator: Sridhar Nimmagadda, Ph.D. and Protocol number M021M175). Male and Female NSG mice (5-6 weeks old) were purchased from JHU immunocompromised core and used to establish xenografts by administering cells subcutaneously (top right flank, unless otherwise noted) to form various tumor models within 3-4 weeks. Following cell numbers were used: Panc1, AsPC1, BxPC3 (1 M), Hs766T and SU8686 (2 M), CFPAC and Panc1005 (5 M). Imaging or biodistribution studies (n = 3-5) were conducted on mice with tumor volumes of 100-200 mm^3. The Panc1 orthotopic tumor model was established by surgically implanting a 3-5 mm^3 section of Panc1 tumor xenograft directly onto the pancreas. The implanted tumors were allowed to grow and were ready for imaging after 10 days of implantation.
Mice with 100-200 mm^3 tumor volume were used for ex vivo biodistribution studies. For radiotracer pharmacokinetics and dosimetry studies, mice with Panc1 tumor xenograft received ~80 µCi (2.96 MBq) [^68Ga]AJ201 and were sacrificed at pre-determined time points (5, 30, 60, 90 and 120 min). All other mice were injected with ~50 µCi (1.85 MBq; 0.2 to 0.5 nmol) Ga-68 labeled radiotracer and were sacrificed at 60 min. The selected tissues were collected, weighed, counted, and their %ID/g values calculated for biodistribution analysis. For pharmacokinetics and dosimetry studies, selected tissues included blood, muscle, tumor, thymus, heart, lung, liver, pancreas, stomach, small intestine, large intestine, spleen, adrenals, kidney, bladder, femur, brain and tumor xenografts. For other studies, selected tissues were blood, muscle, tumor, heart, lung, liver, pancreas, small intestine, spleen, kidney.

[2] = PET-MR imaging of Panc1 orthotopic tumor model; type: in vivo, mice; settings: both sexes, NSG, mouse, iv, total radioactivity, PET/MR 60 min p.i., ROI (n = 4)
Protocol: as §1
Mice having orthotopic panc1 tumors were injected intravenously with [^68Ga]AJ201 and PET images were acquired at 60 min after radiotracer injection for 10 min in 1 bed positions (full body) and whole-body MRI using a Simultaneous 7T Bruker PET-MR. The PET data were acquired, reconstructed, and corrected for radioactive decay using ParaVision 360 V2 by Bruker. The %ID per cc values were obtained after drawing ROI (regain of interest) in tumor and muscle using PMOD software. […]

[3] = iv, i.v., read-out: Adrenals uptake
[4] = iv, i.v., read-out: Bladder uptake
[5] = iv, i.v., read-out: Femur uptake
[6] = iv, i.v., read-out: Kidney uptake
[7] = iv, i.v., read-out: Large Intestine uptake
[8] = iv, i.v., read-out: Small intestine uptake
[9] = iv, i.v., read-out: Spleen uptake

CC(C)C[C@@H]1NC(=O)[C@@H]2CSCCC(=O)N3CN(CN(C3)C(=O)CCSC[C@H](NC(=O)[C@H](CC(=O)O)NC(=O)[C@H](CCCCNC(=N)N)NC(=O)[C@H](C)NC(=O)CNC(=O)CN(C)C(=O)CN(C)C(=O)CN(C)C(=O)[C@H](CCCNC(=N)N)NC(=O)CNC(=O)CCOCCOCCNC(=O)CN3CCN(CC(=O)O)CCN(CC(=O)O)CC3)C(=O)N3C[C@H](O)C[C@H]3C(=O)N[C@@H](CC(C)C)C(=O)N[C@@H](C(C)C)C(=O)N[C@@H](CC(N)=O)C(=O)N3CCC[C@H]3C(=O)N[C@@H](CC(C)C)C(=O)N2)C(=O)CCSC[C@@H](C(N)=O)NC(=O)[C@H](CCCCNC(=N)N)NC(=O)[C@H](Cc2c[nH]c3ccccc23)NC(=O)[C@@H](CC(=O)O)NC(=O)[C@@H]2CCCN2C(=O)[C@H](Cc2c[nH]cn2)NC1=O [[^68Ga]AJ201, metal not drawn] ({NOTA-PEG2}-GR[Sar][Sar][Sar]GA[hArg]DC[Hyp]LVNPLCLHP[dD]W[hArg]C-NH2; linker 10-17-24 via TATA)
tissue uptake at 2 h ([1]; iv, 80 uCi, i.v., read-out: Thymus uptake): 1.21 ± 0.52 %ID/g
tissue uptake at 2 h ([1]; iv, 80 uCi, i.v., read-out: Tumor uptake): 6.46 ± 0.39 %ID/g
tissue to tissue ratio at 2 h ([1]; iv, 80 uCi, read-out: Tumor/Muscle ratio): 24.9 ± 1.93
tissue to tissue ratio at 2 h ([1]; iv, 80 uCi, read-out: Tumor/Pancreas ratio): 18.7 ± 2.39
tissue to tissue ratio at 2 h ([1]; iv, 80 uCi, read-out: Tumor/blood ratio): 8.36 ± 1.85
tissue uptake at 5 min [1, 3]: 4.91 ± 1.83 %ID/g
tissue uptake at 5 min [1, 4]: 28.1 ± 12.1 %ID/g
tissue uptake at 5 min [1, 5]: 2.77 ± 0.13 %ID/g
tissue uptake at 5 min [1, 6]: 37.5 ± 5.93 %ID/g
tissue uptake at 5 min [1, 7]: 3.67 ± 0.66 %ID/g
tissue uptake at 5 min [1, 8]: 3.25 ± 0.3 %ID/g
tissue uptake at 5 min [1, 9]: 7.95 ± 1.66 %ID/g
tissue uptake at 0.5 h [1, 3]: 2.44 ± 0.46 %ID/g
tissue uptake at 0.5 h [1, 4]: 53.8 ± 30.8 %ID/g
tissue uptake at 0.5 h [1, 5]: 1.36 ± 0.37 %ID/g
tissue uptake at 0.5 h [1, 6]: 56.9 ± 1.26 %ID/g
tissue uptake at 0.5 h [1, 7]: 1.95 ± 0.98 %ID/g
tissue uptake at 0.5 h [1, 8]: 1.16 ± 0.18 %ID/g
tissue uptake at 0.5 h [1, 9]: 3.87 ± 1.1 %ID/g
tissue uptake at 1 h ([1]; iv, 60 min p.i., i.v., read-out: Bladder uptake): 48.6 ± 15.5 %ID/g
tissue uptake at 1 h ([1]; iv, 60 min p.i., i.v., read-out: Femur uptake): 0.28 ± 0.06 %ID/g
tissue uptake at 1 h ([1]; iv, 60 min p.i., i.v., read-out: Kidney uptake): 45.5 ± 2.9 %ID/g
tissue uptake at 1 h ([1]; iv, 60 min p.i., i.v., read-out: Large Intestine uptake): 0.15 ± 0.01 %ID/g
tissue uptake at 1 h ([1]; iv, 60 min p.i., i.v., read-out: Small intestine uptake): 0.49 ± 0.07 %ID/g
tissue uptake at 1 h ([1]; iv, 60 min p.i., i.v., read-out: Spleen uptake): 0.74 ± 0.17 %ID/g
tissue uptake at 1.5 h [1, 3]: 1.85 ± 0.46 %ID/g
tissue uptake at 1.5 h [1, 4]: 18.3 ± 6.35 %ID/g
tissue uptake at 1.5 h [1, 6]: 61.8 ± 11.5 %ID/g
tissue uptake at 1.5 h [1, 7]: 1.46 ± 0.35 %ID/g
tissue uptake at 1.5 h [1, 8]: 0.6 ± 0.15 %ID/g
tissue uptake at 1.5 h [1, 9]: 1.81 ± 0.78 %ID/g
tissue uptake at 2 h [1, 3]: 2.69 ± 0.27 %ID/g
tissue uptake at 2 h [1, 4]: 19 ± 8.08 %ID/g
tissue uptake at 2 h [1, 6]: 52 ± 7.46 %ID/g
tissue uptake at 2 h [1, 7]: 1.02 ± 0.3 %ID/g
tissue uptake at 2 h [1, 8]: 0.45 ± 0.24 %ID/g
tissue uptake at 2 h [1, 9]: 1.55 ± 0.47 %ID/g
tissue uptake at 2 h ([1]; iv, i.v., read-out: Stomach with contents uptake): 0.3 ± 0.01 %ID/g
tissue uptake at 1 h ([1]; 60 min p.i. with blocking (non-radioactive AJ201 pre-administered), read-out: Adrenals uptake): 2.36 ± 1.09 %ID/g
tissue uptake at 1 h ([1]; 60 min p.i. with blocking (non-radioactive AJ201 pre-administered), read-out: Bladder uptake): 14.4 ± 13.2 %ID/g
tissue uptake at 1 h ([1]; 60 min p.i. with blocking (non-radioactive AJ201 pre-administered), read-out: Blood uptake): 0.65 ± 0.11 %ID/g
tissue uptake at 1 h ([1]; 60 min p.i. with blocking (non-radioactive AJ201 pre-administered), read-out: Brain uptake): 0.04 ± 0.001 %ID/g
tissue uptake at 1 h ([1]; 60 min p.i. with blocking (non-radioactive AJ201 pre-administered), read-out: Femur uptake): 0.38 ± 0.05 %ID/g
tissue uptake at 1 h ([1]; 60 min p.i. with blocking (non-radioactive AJ201 pre-administered), read-out: Heart uptake): 0.31 ± 0.05 %ID/g
tissue uptake at 1 h ([1]; 60 min p.i. with blocking (non-radioactive AJ201 pre-administered), read-out: Kidney uptake): 71.3 ± 14.2 %ID/g
tissue uptake at 1 h ([1]; 60 min p.i. with blocking (non-radioactive AJ201 pre-administered), read-out: Large Intestine uptake): 0.93 ± 0.4 %ID/g
tissue uptake at 1 h ([1]; 60 min p.i. with blocking (non-radioactive AJ201 pre-administered), read-out: Liver uptake): 0.48 ± 0.07 %ID/g
tissue uptake at 1 h ([1]; 60 min p.i. with blocking (non-radioactive AJ201 pre-administered), read-out: Lung uptake): 0.8 ± 0.14 %ID/g
tissue uptake at 1 h ([1]; 60 min p.i. with blocking (non-radioactive AJ201 pre-administered), read-out: Muscle uptake): 0.26 ± 0.03 %ID/g
tissue uptake at 1 h ([1]; 60 min p.i. with blocking (non-radioactive AJ201 pre-administered), read-out: Pancreas uptake): 0.3 ± 0.03 %ID/g
tissue uptake at 1 h ([1]; 60 min p.i. with blocking (non-radioactive AJ201 pre-administered), read-out: Small intestine uptake): 0.51 ± 0.08 %ID/g
tissue uptake at 1 h ([1]; 60 min p.i. with blocking (non-radioactive AJ201 pre-administered), read-out: Spleen uptake): 0.7 ± 0.11 %ID/g
tissue uptake at 1 h ([1]; 60 min p.i. with blocking (non-radioactive AJ201 pre-administered), read-out: Stomach with contents uptake): 0.19 ± 0.06 %ID/g
tissue uptake at 1 h ([1]; 60 min p.i. with blocking (non-radioactive AJ201 pre-administered), read-out: Thymus uptake): 2.28 ± 0.53 %ID/g
tissue uptake at 1 h ([1]; 60 min p.i. with blocking (non-radioactive AJ201 pre-administered), read-out: Tumor uptake): 1.08 ± 0.24 %ID/g
tissue to tissue ratio at 1 h ([1]; 60 min p.i. with blocking (non-radioactive AJ201 pre-administered), read-out: Tumor/Muscle ratio): 4.4 ± 1.19
tissue to tissue ratio at 1 h ([1]; 60 min p.i. with blocking (non-radioactive AJ201 pre-administered), read-out: Tumor/Pancreas ratio): 3.5 ± 0.7
tissue to tissue ratio at 1 h ([1]; 60 min p.i. with blocking (non-radioactive AJ201 pre-administered), read-out: Tumor/blood ratio): 1.66 ± 0.37
tissue to tissue ratio at 1 h ([2]; tumor and muscle, read-out: Tumor-to-muscle ratio): 14.8 ± 4.46
tissue to tissue ratio at 1 h ([2]; tumor and pancreas, read-out: Tumor-to-pancreas ratio): 10.3 ± 2.24
